Converted amounts (≈) assume the structure as drawn.
Key:
[1] = Cytotoxicity against mouse peritoneal macrophages after 72 hrs by MTT assay; assay type: cell-based, Peritoneal macrophage cell
Leishmania amazonensis [2] = assay: Leishmanicidal activity against promastigote form of Leishmania amazonensis MHOM/BR/71973/M2269 after 72 hrs by cell counting; assay type: functional, organism-based; settings: MHOM/BR/71973/M2269, 72 h
[3] = Selectivity index, ratio of CC50 for mouse peritoneal macrophages to IC50 for promastigote form of Leishmania amazonensis MHOM/BR/71973/M2269; assay type: functional
Leishmania amazonensis [4] = assay: Ratio of 4,4'-dihydroxybenzophenone IC50 to compound IC50 for spromastigote forms of Leishmania amazonensis MHOM/BR/71973/M2269 after 72 hrs by cell counting; assay type: functional

Compound	CC50 at 72 h [1] [µg/mL]	IC50 (Leishmania amazonensis [2]) [µg/mL]	Ratio CC50/IC50 [3]	Ratio IC50 (Leishmania amazonensis [4])
COc1ccc(C(=O)c2ccccc2)cc1	28 (≈ 132 µM)	5.05 (≈ 23.8 µM)		
COc1ccc(C(=O)c2ccccc2)c(O)c1 [OXYBENZONE]	24.6 (≈ 108 µM)	4.9 (≈ 21.5 µM)		
O=C(c1ccc(O)cc1)c1ccc(O)cc1	> 160	121 (≈ 567 µM)		
O=C(c1ccccc1)c1ccc(O)cc1O [2,4-DIHYDROXYBENZOPHENONE]	> 160	29 (≈ 135 µM)		
N=C(N)c1ccc(OCCCCCOc2ccc(C(=N)N)cc2)cc1 [PENTAMIDINE]	3.82 (≈ 11.2 µM)	0.44 (≈ 1.29 µM)	8.68	
C[C@@H]1[C@H](O)[C@@H](C)/C=C/C=C/C=C/C=C/C=C/C=C/C=C/[C@H](O[C@@H]2O[C@H](C)[C@@H](O)[C@H](N)[C@@H]2O)C[C@@H]2O[C@](O)(C[C@@H](O)C[C@@H](O)[C@H](O)CC[C@@H](O)C[C@@H](O)CC(=O)O[C@H]1C)C[C@H](O)[C@H]2C(=O)O [AMPHOTERICIN B]	25 (≈ 27.1 µM)	4.7 (≈ 5.09 µM)	5.32	
CC(C)=CCOc1ccc(C(=O)c2ccc(OCC=C(C)C)cc2)cc1	> 160	5.94 (≈ 16.9 µM)	26.93	250
CCCCOc1ccc(C(=O)c2ccc(OCCCC)cc2)cc1	> 160	23.8 (≈ 72.9 µM)		
CC(C)=CCOc1ccc(C(=O)c2ccccc2)cc1	87.1 (≈ 327 µM)	7.82 (≈ 29.4 µM)		
O=C(c1ccccc1)c1ccc(O)cc1	> 160	40.9 (≈ 206 µM)		
CCCCOc1ccc(C(=O)c2ccccc2)cc1	28.9 (≈ 114 µM)	8.56 (≈ 33.7 µM)		
CC(C)=CCOc1ccc(C(=O)c2ccccc2)c(O)c1	140 (≈ 496 µM)	7.05 (≈ 25 µM)	19.86	
CCCCOc1ccc(C(=O)c2ccccc2)c(O)c1	40.6 (≈ 150 µM)	9.8 (≈ 36.3 µM)		

Source: ChEMBL document CHEMBL2413026, “Synthesis and biological evaluation against Leishmania amazonensis of a series of alkyl-substituted benzophenones” (Bioorg Med Chem, 2013)
